According to US20250019350A1, “SYNTHESIS OF THE PROSTATE SPECIFIC MEMBRANE ANTIGEN (PSMA) RADIOLABELED INHIBITOR [18F]DCFPYL” (Progenics Pharmaceuticals, Inc, priority 2023, published 2025):
Values joined by “and” are separate entries in the source; they are usually repeats but may differ in a detail not shown here. Equal values may be shown once.

Assay: Radiolysis / stability of [18F]DCFPyL over time by HPLC with radiodetection (RCP, free 18F, radioactive impurities)
Type: physicochemical
Protocol: Those of ordinary skill in the art will be aware of techniques and systems for determining the radiochemical purity of a composition. In some cases, the radiochemical purity is determined using an HPLC associated with a radio-detector. Generally, the radiochemical purity is determined under ambient conditions (e.g., ambient temperature, ambient humidity, ambient light, etc.), such as in samples stored under such conditions.
Stability was assessed using reverse phase HPLC on a C18 column with a phosphate buffer/acetonitrile gradient mobile phase, and the elution profile was monitored using both UV and radiochemical detectors. Samples were analyzed either by direct injection onto the HPLC, dilution and injection or including the addition of tetraethylammonium fluoride (TEAF) into the sample before injection.
Known amounts of free ^18F either alone or spiked with TEAF were injected onto the analytic column and the eluent from the column collected over the course of a chromatogram and assaying the radioactivity using a Capintec. […] Adding TEAF into the analytic samples was incorporated into subsequent studies examining potential radiolysis of [^18F]DCFPyL to overcome some of the limitations of free ^18F quantification.
Analytical HPLC method was used. The method employs UV detection at 264 nm for chemical impurities, and an Eckert & Ziegler model B-FC-1000 gamma detector for radiochemical assays.

[1] = T = 2.5 hr, 100 mg/mL ascorbic acid pH 2.0, 256 mCi/mL at EOS
[2] = T = 2.5 hr, 20% ethanol in saline, 52 mCi/mL at EOS
[3] = T = 2.5 hr, 20% ethanol in saline, 65 mCi/mL at EOS
[4] = T = 2.5 hr, 20% ethanol in saline, 85 mCi/mL at EOS
[5] = T = 2.5 hr, control without ascorbic acid, 36% ethanol in saline, 147 mCi/mL at EOS
[6] = T = 3.0 hr, 50 mg/mL ascorbic acid pH 5.8 in final product vial, 20% ethanol, 110 mCi/mL at EOS
[7] = T = 3.0 hr, 100 mg/mL ascorbic acid pH 2.0, 256 mCi/mL at EOS
[8] = T = 3 hr, 20% ethanol in saline, 52 mCi/mL at EOS
[9] = T = 3 hr, 20% ethanol in saline, 65 mCi/mL at EOS
[10] = T = 3 hr, 20% ethanol in saline, 85 mCi/mL at EOS
[11] = T = 3 hr, 100% ethanol, 325 mCi/mL at EOS
[12] = T = 3 hr, control without ascorbic acid, 36% ethanol in saline, 147 mCi/mL at EOS
[13] = T = 3.5 hr, 50 mg/mL ascorbic acid pH 5.8 in final product vial, 20% ethanol, 110 mCi/mL at EOS
[14] = T = 3.5 hr, 100 mg/mL ascorbic acid pH 2.0, 256 mCi/mL at EOS
[15] = T = 3.5 hr, 20% ethanol in saline, 52 mCi/mL at EOS
[16] = T = 3.5 hr, 20% ethanol in saline, 65 mCi/mL at EOS
[17] = T = 3.5 hr, 20% ethanol in saline, 85 mCi/mL at EOS
[18] = T = 3.5 hr, control without ascorbic acid, 36% ethanol in saline, 147 mCi/mL at EOS
[19] = T = 4 hr, 0.5 mg/mL ascorbic acid pH 5.8, 20% ethanol, 105.8 mCi/mL at EOS
[20] = T = 4 hr, 1 mg/mL ascorbic acid pH 5.8, 20% ethanol, 107.0 mCi/mL at EOS
[21] = T = 4 hr, 5 mg/mL ascorbic acid pH 5.8, 20% ethanol, 99.0 mCi/mL at EOS
[22] = T = 4 hr, 20 mg/mL sodium citrate, 20% ethanol, 104.8 mCi/mL at EOS
[23] = T = 4 hr, 50 mg/mL ascorbic acid pH 5.8, 20% ethanol, 139.7 mCi/mL at EOS
[24] = T = 4.0 hr, 50 mg/mL ascorbic acid pH 5.8 in final product vial, 20% ethanol, 110 mCi/mL at EOS
[25] = T = 4.0 hr, 100 mg/mL ascorbic acid pH 2.0, 256 mCi/mL at EOS
[26] = T = 4 hr, 20% ethanol in saline, 52 mCi/mL at EOS
[27] = T = 4 hr, 20% ethanol in saline, 65 mCi/mL at EOS
[28] = T = 4 hr, 20% ethanol in saline, 85 mCi/mL at EOS
[29] = T = 4 hr, 100% ethanol, 325 mCi/mL at EOS
[30] = T = 4 hr, control without ascorbic acid, 36% ethanol in saline, 147 mCi/mL at EOS
[31] = T = 5 hr, 100% ethanol, 325 mCi/mL at EOS

## O=C(O)CC[C@H](NC(=O)N[C@@H](CCCCNC(=O)c1ccc([18F])nc1)C(=O)O)C(=O)O [Lot 18F-DCFPyL, 2-(3-{1-carboxy-5-[(6-[18F]fluoro-pyridine-3-carbonyl)-amino]-pentyl}ureido)-pentanedioic acid]
[1]
  18F-DCFPyL (RCP): 98.71%
  Free 18F: 0.31%
  RT 12.0 radioactive impurity: 0.52%
  RT 12.2 radioactive impurity: 0.46%
[2]
  18F-DCFPyL (RCP): 98.61%
  Free F-18: 0.86%
  RT 5.0 radioactive impurity: 0.53%
[3]
  18F-DCFPyL (RCP): 95.36%
  Free F-18: 3.97%
  RT 5.0 radioactive impurity: 0.41%
  RT 5.9 radioactive impurity: 0.26%
[4]
  18F-DCFPyL (RCP): 95.06%
  Free F-18: 4.29%
  RT 5.0 radioactive impurity: 0.31%
  RT 5.9 radioactive impurity: 0.35%
[5]
  18F-DCFPyL (RCP): 88.79%
  Free F-18: 9.66%
  RT 5.0 radioactive impurity: 0.62%
  RT 5.9 radioactive impurity: 0.93%
[6]
  18F-DCFPyL (RCP): 99.25%
  Free 18F: 0.35%
  RT 5.0 radioactive impurity: 0.39%
  RT 5.9 radioactive impurity: 0.27%
[7]
  18F-DCFPyL (RCP): 98.46%
  Free 18F: 0.29%
  RT 12.0 radioactive impurity: 0.69%
  RT 12.2 radioactive impurity: 0.57%
[8]
  18F-DCFPyL (RCP): 98.53%
  Free F-18: 0.99%
  RT 5.0 radioactive impurity: 0.48%
[9]
  18F-DCFPyL (RCP): 95.64%
  Free F-18: 4.03%
  RT 5.0 radioactive impurity: 0.34%
[10]
  18F-DCFPyL (RCP): 95.10%
  Free F-18: 4.26%
  RT 5.0 radioactive impurity: 0.37%
  RT 5.9 radioactive impurity: 0.27%
[11]
  18F-DCFPyL (RCP): 95.71%
  Free F-18: 4.29%
[12]
  18F-DCFPyL (RCP): 88.94%
  Free F-18: 9.49%
  RT 5.0 radioactive impurity: 0.70%
  RT 5.9 radioactive impurity: 0.87%
[13]
  18F-DCFPyL (RCP): 99.46%
  Free 18F: 0.24%
  RT 5.0 radioactive impurity: 0.31%
[14]
  18F-DCFPyL (RCP): 98.03%
  Free 18F: 0.35%
  RT 12.0 radioactive impurity: 0.88%
  RT 12.2 radioactive impurity: 0.75%
[15]
  18F-DCFPyL (RCP): 98.55%
  Free F-18: 0.94%
  RT 5.0 radioactive impurity: 0.52%
[16]
  18F-DCFPyL (RCP): 95.44%
  Free F-18: 4.17%
  RT 5.0 radioactive impurity: 0.39%
[17]
  18F-DCFPyL (RCP): 95.14%
  Free F-18: 4.51%
  RT 5.0 radioactive impurity: 0.35%
[18]
  18F-DCFPyL (RCP): 88.90%
  Free F-18: 9.56%
  RT 5.0 radioactive impurity: 0.59%
  RT 5.9 radioactive impurity: 0.95%
[19]
  18F-DCFPyL (% RCP): 98.64%
  Free F-18: 1.36%
[20]
  18F-DCFPyL (% RCP): 98.56%
  Free F-18: 1.44%
T = 4 hr, 1 mg/mL sodium ascorbate, 20% ethanol, 111.5 mCi/mL at EOS
  Free F-18: 2.61%
[21]
  18F-DCFPyL (% RCP): 99.23%
  Free F-18: 0.77%
T = 4 hr, 5 mg/mL sodium ascorbate, 20% ethanol, 114.6 mCi/mL at EOS
  Free F-18: 1.23%
[22]
  Free F-18: 20.65%
  RT 3.4 radioactive impurity: 0.32%
  RT 3.7 radioactive impurity: 0.35%
[23]
  18F-DCFPyL (% RCP): 99.69%
  Free F-18: 0.31%
T = 4 hr, 50 mg/mL ascorbic acid pH 5.8, 20% ethanol, 139.7 mCi/mL at EOS, MPA = 0.25% of main peak
  RT 4.8 radioactive impurity: <MPA
[24]
  18F-DCFPyL (RCP): above 99%
  Free 18F: 0.26%
  RT 5.0 radioactive impurity: 0.37%
[25]
  18F-DCFPyL (RCP): 98.0% and 97.98%
  Free 18F: 0.37%
  RT 12.0 radioactive impurity: 0.96%
  RT 12.2 radioactive impurity: 0.69%
T = 4.0 hr, 100 mg/mL ascorbic acid pH 2.0, 256 mCi/mL at EOS, listed as [^18F]DCFPYL
  18F-DCFPyL (RCP): 98.0%
[26]
  18F-DCFPyL (RCP): 98.53%
  Free F-18: 0.98%
  RT 5.0 radioactive impurity: 0.49%
[27]
  18F-DCFPyL (RCP): 95.50%
  Free F-18: 4.23%
  RT 5.0 radioactive impurity: 0.27%
[28]
  18F-DCFPyL (RCP): 94.93%
  Free F-18: 4.73%
  RT 5.0 radioactive impurity: 0.34%
[29]
  18F-DCFPyL (RCP): 95.60%
  Free F-18: 4.40%
[30]
  18F-DCFPyL (RCP): 89% and 89.06%
  Free F-18: 9.27%
  RT 5.0 radioactive impurity: 0.71%
  RT 5.9 radioactive impurity: 0.96%
T = 4 hr, control without ascorbic acid, 36% ethanol in saline, 147 mCi/mL at EOS, listed as [^18F]DCFPYL
  18F-DCFPyL (RCP): 89%
[31]
  18F-DCFPyL (RCP): 95.58%
  Free F-18: 4.42%
T = 6 hr, 0.5 mg/mL ascorbic acid pH 5.8, 20% ethanol, 105.8 mCi/mL at EOS
  Free F-18: 1.44%
T = 6 hr, 1 mg/mL ascorbic acid pH 5.8, 20% ethanol, 107.0 mCi/mL at EOS
  18F-DCFPyL (% RCP): 98.43%
